Reference: paper PMC6158327, “Negative Allosteric Modulators of mGlu7 Receptor as Putative Antipsychotic Drugs” (Frontiers in Molecular Neuroscience, 2018)
Counter-ions that a name gives are not always drawn.

Key:
[1] = tested on: prepulse-induced inhibition of the acoustic startle response; assay: Prepulse inhibition of the acoustic startle response; assay type: in vivo, Wistar rats; details: MK-801 0.3 mg/kg, rats
Description: The procedure was performed according to [Czyrak et al., 2003]. On the day before the experiment, the animals were subjected to a single startle session consisting of two trials, each presented 20 times during the session. During the first trial, a 120 dB, 40 ms pulse was presented, and on the second trial this pulse was preceded by a 75 dB, 20 ms prepulse. On the day of the experiment, the animals were habituated to the background white noise (65 dB) for 5 min (which continued throughout the test), after that the startle session was carried out as described above. Startle response amplitude was defined as the difference between the maximum force detected during a recording window and the force measured immediately before the stimulus onset (the threshold was set at 10 g). For each animal, the amplitudes were averaged separately for each type of trial. The PPI was calculated as the difference between the amplitudes of the pulse (P) and the prepulse + pulse (PP+P), divided by the amplitude of the pulse alone [([P - (PP + P)]/P)×100].

[2] = target: mGlu7; parameters: method as in Wright et al., 2000; details: ref Wright et al., 2000; read-out: Ki (affinity of mGlu7 for glutamate); cited from earlier work
[3] = target: T1, mGlu7 receptor (Homo sapiens, UniProt Q14831); assay: HTRF cAMP assay: antagonism of L-Glu (EC80) inhibition of forskolin-stimulated cAMP accumulation (NAM profile); assay type: cell-based; details: inhibition of forskolin-stimulated cAMP accumulation
T1 construct: expressed in transfected cells
Description: (§1) A homogeneous time-resolved fluorescence (HTRF) cAMP dynamic 2 (Cisbio, Codolet, France) assay was performed as previously described ([Chruścicka et al., 2015]) with recombinant cell lines. Briefly, HEK 293 T-REx cells stably expressing mGlu7 receptor, were collected and suspended in Hanks-HEPES buffer. The cell suspension was added to compounds solution with 5 μM of forskolin (final concentration). After 5 min incubation in 37°C, 5 μl of cAMP-d2 conjugate in lysis buffer was added and mixed with the 10 μl cell suspension by means of an automated pipetting system (Tecan Evo 200, Tecan, Mannedorf, Switzerland). Next, 5 μl anti-cAMP cryptate conjugate was added and the fluorescence at 620 and 665 nm was read after 1 h (Tecan Infinite M1000). The results are shown as the 665 nm/620 nm ratio multiplied by 10^4. The detected signal was inversely proportional to the concentration of cAMP in the sample. […] Each experiment was performed three times (n = 3), and each data point was in triplicate.

[4] = target: T1, mGlu7 receptor; assay: HTRF cAMP assay: potentiation of forskolin action without agonist (inverse agonist properties); assay type: cell-based; details: T-REx 293 cells, 5 μM forskolin
Description: as §1
Both compounds dose-dependently potentiated forskolin action, elevating cAMP concentration in the T-REx 293 cells (Figure 2B). […] This effect was not observed for an antagonist of mGluR7 – XAP044.

T1 sequence (Q14831 35-915): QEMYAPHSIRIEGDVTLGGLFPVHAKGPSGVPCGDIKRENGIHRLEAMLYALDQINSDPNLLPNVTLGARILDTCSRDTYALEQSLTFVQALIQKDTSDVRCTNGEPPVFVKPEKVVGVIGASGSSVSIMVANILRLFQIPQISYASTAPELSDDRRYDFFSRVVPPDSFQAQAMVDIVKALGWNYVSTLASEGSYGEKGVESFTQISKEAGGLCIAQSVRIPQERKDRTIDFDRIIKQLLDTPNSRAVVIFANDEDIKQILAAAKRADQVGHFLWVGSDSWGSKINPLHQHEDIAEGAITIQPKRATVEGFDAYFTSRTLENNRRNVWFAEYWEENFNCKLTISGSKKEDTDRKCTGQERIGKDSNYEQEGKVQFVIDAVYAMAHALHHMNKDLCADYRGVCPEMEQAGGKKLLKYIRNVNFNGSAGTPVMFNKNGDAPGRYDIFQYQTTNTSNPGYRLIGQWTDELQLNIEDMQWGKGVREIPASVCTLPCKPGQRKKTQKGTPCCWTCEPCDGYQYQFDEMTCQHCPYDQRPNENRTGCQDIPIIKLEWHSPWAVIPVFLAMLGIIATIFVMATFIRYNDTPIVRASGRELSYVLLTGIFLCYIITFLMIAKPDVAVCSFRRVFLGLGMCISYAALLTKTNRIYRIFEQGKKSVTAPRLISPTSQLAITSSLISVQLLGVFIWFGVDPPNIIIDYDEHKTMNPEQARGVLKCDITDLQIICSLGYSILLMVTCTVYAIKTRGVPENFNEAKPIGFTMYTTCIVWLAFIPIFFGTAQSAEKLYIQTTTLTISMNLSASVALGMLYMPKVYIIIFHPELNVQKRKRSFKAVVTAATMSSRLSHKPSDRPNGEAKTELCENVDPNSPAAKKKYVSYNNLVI

## C[C@]12N[C@H](Cc3ccccc31)c1ccccc12 [MK-801, (5S,10R)-(+)-5-Methyl-10,11-dihydro-5H-dibenzo[a,d]cyclo-hepten-5,10-imine maleate]
[1]
  Prepulse-induced inhibition of the acoustic startle response after MK-801: 16 % of control

## N[C@@H](CCC(=O)O)C(=O)O [L-Glu]
[2]
  Ki: 869 µM
[3]
  L-Glu EC80 concentration: 6260 µM

## O=c1c(Oc2ccc(I)cc2)coc2cc(O)ccc12 [XAP044]
[4]
  Potentiation of forskolin action (inverse agonist effect): not observed
